Measurements as given in the NIST ThermoML archive (doi:10.1016/j.jct.2015.06.004).

Experiments:
[1] = 298.15 K; 101.33 kPa; Liquid; Vibrating tube method
[2] = excess molar enthalpy (molar enthalpy of mixing); xn = mol fraction of the nth substance listed; settings: 298.15 K, 100 kPa, Liquid, Power-compensation calorimetry

CCCC[N+]1(C)CCCC1.N#C[B-](C#N)(C#N)C#N [1-butyl-1-methylpyrrolidinium tetracyanoborate]
Settings	mass density [kg/m3]
[1]	975.61

CCCC[N+]1(C)CCCC1.N#C[B-](C#N)(C#N)C#N [1-butyl-1-methylpyrrolidinium tetracyanoborate] + CCCCO
[2]
Settings	excess molar enthalpy [kcal/mol]
x1 = 0.0149	0.0582
x1 = 0.03	0.111
x1 = 0.0449	0.159
x1 = 0.0599	0.202
x1 = 0.0749	0.242
x1 = 0.0899	0.279
x1 = 0.1049	0.313
x1 = 0.1199	0.344
x1 = 0.1349	0.373
x1 = 0.1499	0.4
x1 = 0.1649	0.425
x1 = 0.1799	0.448
x1 = 0.1949	0.469
x1 = 0.2099	0.489
x1 = 0.2248	0.507
x1 = 0.2399	0.524
x1 = 0.2549	0.539
x1 = 0.2698	0.553
x1 = 0.2849	0.565
x1 = 0.2999	0.576
x1 = 0.4828	0.591
x1 = 0.5199	0.579
x1 = 0.557	0.561
x1 = 0.5941	0.537
x1 = 0.631	0.508
x1 = 0.6681	0.474
x1 = 0.7049	0.435
x1 = 0.7419	0.392
x1 = 0.7789	0.346
x1 = 0.8157	0.295
x1 = 0.8525	0.242
x1 = 0.8892	0.186
x1 = 0.9262	0.126
x1 = 0.9632	0.0638

CCCC[N+]1(C)CCCC1.N#C[B-](C#N)(C#N)C#N [1-butyl-1-methylpyrrolidinium tetracyanoborate] + CCCO
[2]
Settings	excess molar enthalpy [kcal/mol]
x1 = 0.014	0.0518
x1 = 0.028	0.0994
x1 = 0.042	0.143
x1 = 0.056	0.183
x1 = 0.07	0.22
x1 = 0.084	0.255
x1 = 0.098	0.287
x1 = 0.112	0.317
x1 = 0.126	0.345
x1 = 0.1399	0.37
x1 = 0.1539	0.394
x1 = 0.168	0.417
x1 = 0.1819	0.437
x1 = 0.1959	0.456
x1 = 0.21	0.474
x1 = 0.224	0.49
x1 = 0.2257	0.484
x1 = 0.238	0.504
x1 = 0.252	0.518
x1 = 0.2592	0.522
x1 = 0.264	0.528
x1 = 0.2983	0.553
x1 = 0.3374	0.573
x1 = 0.3765	0.584
x1 = 0.4156	0.588
x1 = 0.4547	0.584
x1 = 0.4938	0.573
x1 = 0.5329	0.556
x1 = 0.572	0.533
x1 = 0.611	0.505
x1 = 0.65	0.471
x1 = 0.6891	0.433
x1 = 0.7282	0.39
x1 = 0.7672	0.343
x1 = 0.8062	0.292
x1 = 0.8451	0.238
x1 = 0.8839	0.18
x1 = 0.9228	0.119
x1 = 0.9615	0.0556

CCCC[N+]1(C)CCCC1.N#C[B-](C#N)(C#N)C#N [1-butyl-1-methylpyrrolidinium tetracyanoborate] + CCO
[2]
Settings	excess molar enthalpy [kcal/mol]
x1 = 0.0134	0.0375
x1 = 0.0268	0.0729
x1 = 0.0402	0.107
x1 = 0.0537	0.14
x1 = 0.0672	0.171
x1 = 0.0808	0.201
x1 = 0.0948	0.23
x1 = 0.1088	0.257
x1 = 0.1228	0.283
x1 = 0.1368	0.307
x1 = 0.1509	0.329
x1 = 0.1511	0.334
x1 = 0.165	0.35
x1 = 0.1652	0.355
x1 = 0.1792	0.369
x1 = 0.1902	0.389
x1 = 0.1933	0.387
x1 = 0.2067	0.403
x1 = 0.2202	0.424
x1 = 0.2403	0.444
x1 = 0.2803	0.477
x1 = 0.3203	0.501
x1 = 0.3604	0.517
x1 = 0.4005	0.525
x1 = 0.4406	0.527
x1 = 0.4806	0.521
x1 = 0.5206	0.51
x1 = 0.5607	0.492
x1 = 0.6007	0.47
x1 = 0.6408	0.441
x1 = 0.6807	0.408
x1 = 0.7203	0.371
x1 = 0.7604	0.328
x1 = 0.8002	0.282
x1 = 0.8402	0.232
x1 = 0.8802	0.178
x1 = 0.9201	0.121
x1 = 0.96	0.0612

CCCC[N+]1(C)CCCC1.N#C[B-](C#N)(C#N)C#N [1-butyl-1-methylpyrrolidinium tetracyanoborate] + CO
[2]
Settings	excess molar enthalpy [kcal/mol]
x1 = 0.013	0.0258
x1 = 0.026	0.0519
x1 = 0.039	0.0782
x1 = 0.052	0.104
x1 = 0.065	0.129
x1 = 0.078	0.153
x1 = 0.091	0.176
x1 = 0.104	0.197
x1 = 0.117	0.218
x1 = 0.13	0.237
x1 = 0.1362	0.255
x1 = 0.143	0.254
x1 = 0.156	0.271
x1 = 0.1602	0.288
x1 = 0.169	0.287
x1 = 0.1775	0.297
x1 = 0.2003	0.334
x1 = 0.2404	0.37
x1 = 0.2805	0.399
x1 = 0.3207	0.419
x1 = 0.3608	0.432
x1 = 0.4009	0.439
x1 = 0.441	0.439
x1 = 0.4812	0.434
x1 = 0.5213	0.423
x1 = 0.5615	0.407
x1 = 0.6016	0.386
x1 = 0.6416	0.361
x1 = 0.6816	0.331
x1 = 0.7217	0.298
x1 = 0.7616	0.261
x1 = 0.8015	0.221
x1 = 0.8414	0.177
x1 = 0.8814	0.13
x1 = 0.9213	0.0811
x1 = 0.9606	0.0317
